These results are taken from patent US20250243188A1, “METHIONINE ADENOSYLTRANSERASE 2A INHIBITORS” (IDEAYA BIOSCIENCES, INC., priority 2022, published 2025).

The structures appear in SMILES notation.

In this assay the target is Human MAT2A (Homo sapiens (Human), UniProt P31153). As to the kind of experiment: Phosphate Sensor Fluorescence Assay (MAT2A enzyme inhibition). The assay is classed as biochemical. The following applies: MAT2A (1-395) 5.8 nM, 500 uM L-methionine, 500 uM ATP. The method, then: The ability of the compound of present disclosure to inhibit MAT2A enzyme was determined using a Phosphate Sensor Fluorescence Assay described below.
Human MAT2A, sequence (P31153 whole entry): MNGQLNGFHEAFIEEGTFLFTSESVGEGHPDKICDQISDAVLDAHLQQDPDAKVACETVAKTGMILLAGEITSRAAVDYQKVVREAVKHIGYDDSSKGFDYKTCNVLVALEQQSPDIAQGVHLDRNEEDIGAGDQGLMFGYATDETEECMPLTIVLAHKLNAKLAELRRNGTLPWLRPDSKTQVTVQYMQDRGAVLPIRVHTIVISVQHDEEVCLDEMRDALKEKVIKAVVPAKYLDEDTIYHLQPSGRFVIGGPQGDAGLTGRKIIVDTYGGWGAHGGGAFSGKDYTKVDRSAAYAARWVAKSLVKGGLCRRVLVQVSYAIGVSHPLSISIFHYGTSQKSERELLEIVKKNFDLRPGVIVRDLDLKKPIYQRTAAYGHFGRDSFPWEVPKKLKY
MAT2A enzyme is incubated with a test compound in DMSO or DMSO and its substrates (L-methionine and ATP) in a microtiter plate. The enzymatic reaction is stopped by the addition of Working Phosphate Sensor Mixture. The plate is analyzed for fluorescence at 450 nm. The high control (DMSO with enzyme and its substrates) gives high fluorescence which represents no inhibition of enzymatic activity while the low control (DMSO with MAT2A substrates and no enzyme) gives low fluorescence which represents full inhibition of enzymatic activity.
• Human MAT2A: Cepter, amino acids 1-395 (Clone ID 334, lot 00023-148) • Tris, pH 7.5: Invitrogen cat #15567-027 • KCl: Ambion cat #AM9640G • MgCl2: Ambion cat #AM9530G • Brij-35: Sigma cat B4184-10ML • DTT: Goldbio cat #DTT100 • BGG: Sigma cat #G5009-25G • PNP: Novus Biologicals cat #NBP1-50872 • 7-MEG: Cayman Chemical cat #15988 • L-Methionine: JTBaker P/N 2085-05 • ATP: Promega P/N V915B • Phosphate Sensor: Thermo Fisher cat #PV4407 • EDTA: Invitrogen cat #15575-038 • Assay plate: 384-well black polypropylene plate: Corning P/N 3573
• Assay Buffer: 50 mM Tris, pH 7.5/50 mM KCl/10 mM MgCl2/0.01% Brij-35/1 mM DTT/0.01% BGG/40 nM PNP/6 uM 7-MEG • MAT2A: 5.8 nM MAT2A (1-395), Cepter, clone ID 334, lot 00023-148 before the addition of Working Phosphate Sensor Mixture • L-methionine: 500 uM before the addition of Working Phosphate Sensor Mixture • ATP: 500 uM before the addition of Working Phosphate Sensor Mixture
For the assay, a mixture of 1 mM L-methionine/1 mM ATP (2× final pre-stopped concentration) in assay buffer; MAT2A (2× final pre-stopped concentration) in Assay Buffer and Working Phosphate Sensor Mixture (1.5 uM Phosphate Sensor/30 mM EDTA in Assay Buffer, which is 3× final concentrations) were prepared. Test compounds or DMSO were added to the appropriate well using a Beckman Coulter Echo 550 acoustic liquid handler. 10 μl/well of Assay Buffer was added to the wells corresponding to the negative control and 10 μl/well of MAT2A was added to all the wells except for those corresponding to the negative control. After incubating the plate at room temperature for 15 minutes, 10 μl/well of the 1 mM L-methionine/1 mM ATP mixture was added to all wells. The plate was centrifuged at 1000 rpm for 1 minute and then incubated at room temperature for 1 hour. 10 μl of the Working Phosphate Sensor Mixture was added to all wells and the plate was centrifuged at 1000 rpm for 1 minute. The plate was read for fluorescence at 450 nm after exciting at 430 nm on a Tecan Spark microplate reader.
Percent inhibition was calculated in Chemical and Biological Information System (CBIS), (ChemInnovation Software Inc.). Curves were fitted by CBIS as % inhibition vs. log [compound concentration] using a 4-parameter inhibition model.
For `CN(C)c1nc(=O)n(-c2cccc(NC(=O)c3csc(-n4c(=O)nc(N(C)C)c5ccc(Cl)cc54)c3)c2)c2cc(Cl)ccc12` [Example 1, 5-(7-Chloro-4-(dimethylamino)-2-oxoquinazolin-1(2H)-yl)-N-(3-(7-chloro-4-(dimethylamino)-2-oxoquinazolin-1(2H)-yl)phenyl)thiophene-3-carboxamide], the half-maximal inhibitory concentration (IC50) is below 200 nM.

On to `O=C(Nc1cccc(-n2c(=O)[nH]c(=O)c3ccc(Cl)cc32)c1)c1csc(-n2c(=O)[nH]c(=O)c3ccc(Cl)cc32)c1` [Example 2, 5-(7-Chloro-2,4-dioxo-3,4-dihydroquinazolin-1(2H)-yl)-N-(3-(7-chloro-2,4-dioxo-3,4-dihydroquinazolin-1(2H)-yl)phenyl)thiophene-3-carboxamide], for which the IC50 is below 200 nM.

`Cc1c(C(=O)Nc2cccc(-n3c(=O)nc(N(C)C)c4ccc(Cl)cc43)c2)csc1-n1c(=O)nc(N(C)C)c2ccc(Cl)cc21` [Example 3, 5-(7-Chloro-4-(dimethylamino)-2-oxoquinazolin-1(2H)-yl)-N-(3-(7-chloro-4-(dimethylamino)-2-oxoquinazolin-1(2H)-yl)phenyl)-4-methylthiophene-3-carboxamide] gave an IC50 below 200 nM.

`CN(C)c1nc(=O)n(-c2cccc(NC(=O)c3ncc(-n4c(=O)nc(N(C)C)c5ccc(Cl)cc54)n3C)c2)c2cc(Cl)ccc12` [Example 4, 5-(7-Chloro-4-(dimethylamino)-2-oxoquinazolin-1(2H)-yl)-N-(3-(7-chloro-4-(dimethylamino)-2-oxoquinazolin-1(2H)-yl)phenyl)-1-methyl-1H-imidazole-2-carboxamide] yielded an IC50 below 200 nM.

With `O=C(Nc1cccc(-n2c(=O)[nH]c(=O)c3ccc(C(F)(F)F)cc32)c1)c1csc(-n2c(=O)[nH]c(=O)c3ccc(C(F)(F)F)cc32)c1` [Example 5, 5-(2,4-Dioxo-7-(trifluoromethyl)-3,4-dihydroquinazolin-1(2H)-yl)-N-(3-(2,4-dioxo-7-(trifluoromethyl)-3,4-dihydroquinazolin-1(2H)-yl)phenyl)thiophene-3-carboxamide], the IC50 is below 200 nM.

In turn, `CN(C)c1nc(=O)n(-c2cccc(NC(=O)c3csc(-n4c(=O)nc(N(C)C)c5ccc(C(F)(F)F)cc54)c3)c2)c2cc(C(F)(F)F)ccc12` [Example 6, 5-(4-(Dimethylamino)-2-oxo-7-(trifluoromethyl)quinazolin-1(2H)-yl)-N-(3-(4-(dimethylamino)-2-oxo-7-(trifluoromethyl)quinazolin-1(2H)-yl)phenyl)thiophene-3-carboxamide] displayed an IC50 below 200 nM.

As to `O=C(Nc1cccc(-n2c(=O)[nH]c(=O)c3ccc(Cl)cc32)c1)c1cccc(-n2c(=O)[nH]c(=O)c3ccc(Cl)cc32)c1` [Example 7, 3-(7-Chloro-2,4-dioxo-3,4-dihydroquinazolin-1(2H)-yl)-N-(3-(7-chloro-2,4-dioxo-3,4-dihydroquinazolin-1(2H)-yl)phenyl)benzamide], the IC50 is below 200 nM.

Consider `CN(C)c1nc(=O)n(-c2cccc(NC(=O)c3cnc(-n4c(=O)nc(N(C)C)c5ccc(Cl)cc54)s3)c2)c2cc(Cl)ccc12` [Example 8, 2-(7-Chloro-4-(dimethylamino)-2-oxoquinazolin-1(2H)-yl)-N-(3-(7-chloro-4-(dimethylamino)-2-oxoquinazolin-1(2H)-yl)phenyl)thiazole-5-carboxamide], for which the 50% inhibitory concentration (IC50) is below 200 nM.

In turn, `Cn1c(-n2c(=O)[nH]c(=O)c3ccc(Cl)cc32)cnc1C(=O)Nc1cccc(-n2c(=O)[nH]c(=O)c3ccc(Cl)cc32)c1` [Example 9, 5-(7-Chloro-2,4-dioxo-3,4-dihydroquinazolin-1(2H)-yl)-N-(3-(7-chloro-2,4-dioxo-3,4-dihydroquinazolin-1(2H)-yl)phenyl)-1-methyl-1H-imidazole-2-carboxamide] gave an IC50 below 200 nM.

On to `CN(C)c1nc(=O)n(-c2cccc(NC(=O)c3cc(-n4c(=O)nc(N(C)C)c5ccc(Br)cc54)n(C)n3)c2F)c2cc(Cl)ccc12` [Example 10, 5-(7-Bromo-4-(dimethylamino)-2-oxoquinazolin-1(2H)-yl)-N-(3-(7-chloro-4-(dimethylamino)-2-oxoquinazolin-1(2H)-yl)-2-fluorophenyl)-1-methyl-1H-pyrazole-3-carboxamide], for which the IC50 was below 200 nM.

Consider `CN(C)c1nc(=O)n(-c2cccc(NCc3csc(-n4c(=O)nc(N(C)C)c5ccc(Cl)cc54)c3)c2)c2cc(Cl)ccc12` [Example 11, 7-Chloro-1-(4-(((3-(7-chloro-4-(dimethylamino)-2-oxoquinazolin-1(2H)-yl)phenyl)amino)methyl)thiophen-2-yl)-4-(dimethylamino)quinazolin-2(1H)-one], for which the IC50 is below 200 nM.

Molecule `CN(C)c1nc(=O)n(-c2cccc(OCc3csc(-n4c(=O)nc(N(C)C)c5ccc(Cl)cc54)c3)c2)c2cc(Cl)ccc12` [Example 12, 7-Chloro-1-(4-((3-(7-chloro-4-(dimethylamino)-2-oxoquinazolin-1(2H)-yl)phenoxy)methyl)thiophen-2-yl)-4-(dimethylamino)quinazolin-2(1H)-one] came in with an IC50 below 200 nM.
